Laboratory results taken from patent US20180028436A1, “TOPICAL FORMULATION OF HOPS EXTRACT” (priority 2016, published 2018).

Test system: fibroblast cells of L929 cell line
Experiment: MTT cytotoxicity assay on fibroblast cells
Format: cell-based
Text: In this example, biocompatibility and toxicity of the topical formulation were studied. At first, cytotoxicity of the hops extract, hops nanoparticles (which were produced according to EXAMPLE 1), and β-cyclodextrin as the carrier were investigated as follows. The cultured fibroblast cells of L929 cell line were exposed to the hops extract, hops nanoparticles, and β-cyclodextrin in three test groups with different concentrations. Three test groups and the control group were studied in a 3-(4,5-dimethylthiazol-2-yl)-2,5-diphenyltetra-zolium bromide (MTT) assay using dimethyl thiazolyl diphenyl tetrazolium salt for evaluating the cell toxicity. FIG. 6A illustrates a MTT plot of the fibroblast cells after about 24 hours of exposing to the hops nanoparticles. Higher absorbance of the MTT dye indicates higher cellular proliferation.

`OC[C@H]1O[C@@H]2O[C@H]3[C@H](O)[C@@H](O)[C@@H](O[C@H]4[C@H](O)[C@@H](O)[C@@H](O[C@H]5[C@H](O)[C@@H](O)[C@@H](O[C@H]6[C@H](O)[C@@H](O)[C@@H](O[C@H]7[C@H](O)[C@@H](O)[C@@H](O[C@H]8[C@H](O)[C@@H](O)[C@@H](O[C@H]1[C@H](O)[C@H]2O)O[C@@H]8CO)O[C@@H]7CO)O[C@@H]6CO)O[C@@H]5CO)O[C@@H]4CO)O[C@@H]3CO` [β-cyclodextrin] was tested, and the “IC50 Value 24 hours” value (L929 fibroblast cells, MTT, 24 hours) was >6000 µg/mL, the “IC50 Value 72 hours” value (L929 fibroblast cells, MTT, 72 hours) was >6000 µg/mL and the cytotoxicity effect (conclusion from IC50 values of TABLE 3) was “no cytotoxicity effect”.
